No end group written: not given here.

Assay [1] concerns in Gewebekultur gezüchtete Zellen von Rattenhypophysen. Put plainly: Growth hormone release from cultured rat pituitary cells (RIA for rat growth hormone). Format: cell-based, Sprague-Dawley-Ratten. From the text: Die biologische Aktivität von (leu^27)-GRF(1―44)-OH wurde mit derjenigen von natürlichem GRF(1―44)-NH2 verglichen, das aus einem Pankreastumor eines an Akromegalie leidenden Patienten isoliert wurde (Salk Institute Standard hp-GRF-NH2(NL-A-10)). Der Test auf biologische Aktivität, bei dem die Fähigkeit gemessen wird, in Gewebekultur gezüchtete Zellen von Rattenhypophysen zur Wachstumshormonproduktion zu stimulieren, wurde in der folgenden Weise durchgeführt:
Die Hypophysen-Vorderlappen von 30-40 männlichen Sprague-Dawley-Ratten (175 g) wurden dreimal mit sterilem Hepes-Puffer (pH 7,5) gewaschen und bei 37°C in 20-30 ml Hepes-Puffer (0,025 m, pH 7,35), enthaltend Kollagenase (4 mg/ml) und Dispase (2 mg/ml), dispergiert. Nach 100-110 minütiger Behandlung mit einem Vortex-Mixer und Behandlung mit Pasteur-Pipette, wurden die dispergierten Zellen durch Zentrifugieren (4 Minuten, 150xg) abgetrennt und während 10 Minuten in Hepes-Puffer, enthaltend 8 pg/ml Neuraminidase und 200 pg/ml Ethylendiamintetraessigsäure-dinatriumsalz, pH 7,35, resuspendiert. Die Zellen wurden zweimal mit folgendem Medium gewaschen: F-12/DMEM/BGjb (6:3:1) (Gibco: 430―1700/430―1600/320―2591) mit 2 g/I Rinderserumalbumin (BSA), 2x38 g/I Hepes und 50 mg/I Gentamycin und auf Mikrotiterplatten aufgebracht (1,5x10^5 Zellen/ml). Dem Medium in den einzelnen Löchern wurde entweder (leu^27)-GRF(1―44)-OH oder natürliches GRF(1-44)-NH2 in solchen Mengen zugesetzt, dass sich folgende Konzentrationen ergaben: 3.1, 6.3, 12.5, 25.0, 50.0, 100.0 und 200.0 fMol/ml. Die Kontrollen wurden nicht supplementiert. Das Aufbringen mit diesem Medium erfolgte unter Zusatz von 2% fötalem Kälberserum, um eine schnelle Fixierung der Zellen zu erreichen. Am vierten Tag wurden die Zellen zweimal mit dem oben definierten Medium (ohne Kälberserum) gewaschen. Schliesslich wurden jedem Loch 900 µl des Mediums sowie 100 µl Medium mit der Testsubstanz zugesetzt (jeweils dreifach). Nach dreistündiger Inkubation wurde der Überstand gesammelt und soweit verdünnt, dass Radioimmunoassays (RIAs) auf Ratten-Wachstumshormon durchgeführt werden konnten. […]

The conditions of assay [2]: synthetically prepared peptides; factor relative to GRF(1-40)-OH; cited from earlier work.

For “(leu^27)-GRF(1―44)-OH (YADAIFTNSYRKVLGQLSARKLLQDILSRQQGESNQERGARARL-OH; UniProt P01286 32-75, looked up, variant M27L) [(Leu^27)-GRF(1-44)-OH]”, in assay [1] (computer analysis of the table data, standard hp-GRF-NH2(NL-A-10) = natural GRF(1-44)-NH2, 3.1-200.0 fMol/ml, 3 h incubation), the “relative Aktivität gegenüber dem Standard des Salk Instituts” value is 1,063. In assay [1] (in vitro), the “Faktor, um den die ausgeschüttete Menge an Wachstumshormon grösser ist, bezogen auf (leu^27)-GRF-OH” value is on record as not below 10. In addition, the “Aktivität verglichen mit GRF(1-44)-NH2” value in assay [1] (stimulation of growth hormone production, 3.1-200.0 fMol/ml, 3 h incubation) was “gleich oder leicht höher”.
On to “GRF(1-29)-NH2: synthetic GRF fragment, first 29 amino acids, amidated (Rivier et al.) (YADAIFTNSYRKVLGQLSARKLLQDIMSR-NH2; UniProt P01286 32-60, looked up, fragment)”, for which, in assay [2], the “Aktivitäten ähnlich wie GRF(1-40)-OH (innerhalb eines Faktors)” value (shortened to “Aktivitäten ähnlich wie GRF(1-40)-OH”) is not above 2.
Consider “GRF(1-32)-NH2: synthetic GRF fragment, first 32 amino acids, amidated (Rivier et al.) (YADAIFTNSYRKVLGQLSARKLLQDIMSRQQG-NH2; UniProt P01286 32-63, looked up, fragment)”, for which the “Aktivitäten ähnlich wie GRF(1-40)-OH” value in assay [2] is on record as not above 2.
For the substance “GRF(1-39)-NH2: synthetic GRF fragment, first 39 amino acids, amidated (Rivier et al.) (YADAIFTNSYRKVLGQLSARKLLQDIMSRQQGESNQERG-NH2; UniProt P01286 32-70, looked up, fragment)”, the “Aktivitäten ähnlich wie GRF(1-40)-OH” value in assay [2] is not above 2.
On to “GRF(1-40)-NH2: synthetic GRF fragment, first 40 amino acids, amidated (Rivier et al.) (YADAIFTNSYRKVLGQLSARKLLQDIMSRQQGESNQERGA-NH2; UniProt P01286 32-71, looked up, fragment)”, for which, in assay [2], the “Aktivitäten ähnlich wie GRF(1-40)-OH” value is listed as not above 2.
